According to patent US12134788B2, “Engineered prephenate dehydrogenases and arogenate dehydrogenases and methods of using the same” (Wisconsin Alumni Research Foundation, priority 2017, dated 2024):
Changes are numbered by the printed parent chain.

Experiments:
[1] = biological target: T1, GmPDH1 (Gm18g02650), soybean (Glycine max) prephenate dehydrogenase, wild type (Glycine max, UniProt I1MYY4); experiment: ADH and PDH assay: steady-state kinetics and Tyr inhibition, GmPDH1 wild type; type: biochemical
T1 construct: homodimer
T1 sequence (I1MYY4 1-271): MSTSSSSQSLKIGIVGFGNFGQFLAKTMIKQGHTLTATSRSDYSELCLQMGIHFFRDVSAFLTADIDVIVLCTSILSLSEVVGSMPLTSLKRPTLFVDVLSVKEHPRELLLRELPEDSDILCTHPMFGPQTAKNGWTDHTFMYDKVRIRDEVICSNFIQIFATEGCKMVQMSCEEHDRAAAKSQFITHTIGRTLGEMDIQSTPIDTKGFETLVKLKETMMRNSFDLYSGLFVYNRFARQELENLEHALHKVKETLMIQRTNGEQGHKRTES
Protocol: (§1) Kinetic parameters of purified recombinant proteins were determined from assays conducted at varying arogenate (19.5 μM-5 mM) and prephenate concentration (23.4 μM-6 mM). Standard assay conditions were 25 mM HEPES pH 7.6, 50 mM KCl and 10% (v/v) ethylene glycol, and 0.5 mM NADP^+ with varied substrate, concentrations. Reactions were initiated by addition of enzyme and incubated at 37° C. monitored every 10-15 seconds at […] using a microplate reader (Tecan Genios). Kinetic parameters were determined by fitting initial velocity data to the Michaelis-Menten equation using the Origin software (OriginLab).
(§2) Arogenate was prepared by enzymatic conversion of prephenate (Sigma-Aldrich) as previously reported^56. For Tyr inhibition assays, Tyr was dissolved in a slightly basic solution (0.025 N NaOH) due to solubility issues, thus the concentration of lysis buffer was increased to 500 mM HEPES final concentration to buffer against the changes by addition of Tyr in the reaction. […]

[2] = biological target: T2, MtPDH (MtPDH1; Mt3g071980), Medicago truncatula prephenate dehydrogenase, wild type (Medicago truncatula, UniProt A0A0A0R205); experiment: ADH and PDH assay: steady-state kinetics and Tyr inhibition, MtPDH wild type; type: biochemical
T2 sequence (A0A0A0R205 1-268): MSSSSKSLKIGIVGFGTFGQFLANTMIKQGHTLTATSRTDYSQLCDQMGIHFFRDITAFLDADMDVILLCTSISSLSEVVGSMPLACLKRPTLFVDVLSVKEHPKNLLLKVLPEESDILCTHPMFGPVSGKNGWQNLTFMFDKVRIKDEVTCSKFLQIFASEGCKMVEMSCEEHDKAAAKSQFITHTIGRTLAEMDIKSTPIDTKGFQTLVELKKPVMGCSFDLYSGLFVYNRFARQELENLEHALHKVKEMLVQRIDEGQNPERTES
Protocol: as §1, §2

[3] = tested on: Peanut PDH/ADH (AipaensisVYE8T), Arachis ipaensis, wild type; experiment: ADH and PDH assay: steady-state kinetics and Tyr inhibition, peanut PDH/ADH; type: biochemical; details: 0-8 mM L-Tyr
Protocol: as §1
(§3) Arogenate was prepared by enzymatic conversion of prephenate (Sigma-Aldrich) as previously reported^56. For Tyr inhibition assays, Tyr was dissolved in a slightly basic solution (0.025 N NaOH) due to solubility issues, thus the concentration of lysis buffer was increased to 500 mM HEPES final concentration to buffer against the changes by addition of Tyr in the reaction. Reactions containing varying amounts of Tyr (10 μM-8 mM) with 0.5 mM NADP^+ and either 1 mM arogenate or 0.8 mM prephenate were monitored as above.

[4] = biological target: T3, MtncADH (Mt5g083530), Medicago truncatula noncanonical arogenate dehydrogenase, wild type (Medicago truncatula, UniProt A0A217FAR3); experiment: ADH and PDH assay: steady-state kinetics and Tyr inhibition, MtncADH wild type; type: biochemical; details: for IC50: IC50^Tyr, 0.5 mM NADP^+
T3 construct: wild type
T3 sequence (A0A217FAR3 1-266): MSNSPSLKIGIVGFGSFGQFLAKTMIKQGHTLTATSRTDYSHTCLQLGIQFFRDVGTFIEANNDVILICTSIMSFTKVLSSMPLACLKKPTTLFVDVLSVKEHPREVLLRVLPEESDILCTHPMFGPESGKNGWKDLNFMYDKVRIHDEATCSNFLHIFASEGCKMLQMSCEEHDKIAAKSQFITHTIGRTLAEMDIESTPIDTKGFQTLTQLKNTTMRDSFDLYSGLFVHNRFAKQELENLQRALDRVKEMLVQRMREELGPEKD
Protocol: as §1, §3

[5] = biological target: T4, SolyncADH (Slycopersicum06g050630), tomato noncanonical arogenate dehydrogenase, wild type (Solanum lycopersicum, UniProt K4C5K7); experiment: ADH and PDH assay: steady-state kinetics and Tyr inhibition, SolyncADH wild type; type: biochemical
T4 construct: wild type
T4 sequence (K4C5K7 1-272): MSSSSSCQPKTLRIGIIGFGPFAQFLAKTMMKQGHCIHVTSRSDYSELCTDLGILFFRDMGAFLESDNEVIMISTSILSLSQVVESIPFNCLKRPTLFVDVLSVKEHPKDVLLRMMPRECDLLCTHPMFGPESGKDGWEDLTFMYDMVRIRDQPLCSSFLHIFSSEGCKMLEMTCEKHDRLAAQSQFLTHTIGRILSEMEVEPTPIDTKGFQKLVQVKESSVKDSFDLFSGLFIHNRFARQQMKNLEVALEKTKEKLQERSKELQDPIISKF
Protocol: as §1, §3

[6] = biological target: Glycine max GmPDH1 variant M219T (Glycine max, UniProt I1MYY4, M219T); experiment: ADH and PDH assay: steady-state kinetics and Tyr inhibition, GmPDH1 M219T; type: biochemical, Glycine max (soybean); details: 0-8 mM L-Tyr
Glycine max GmPDH1 variant M219T, sequence (I1MYY4 1-271 M219T): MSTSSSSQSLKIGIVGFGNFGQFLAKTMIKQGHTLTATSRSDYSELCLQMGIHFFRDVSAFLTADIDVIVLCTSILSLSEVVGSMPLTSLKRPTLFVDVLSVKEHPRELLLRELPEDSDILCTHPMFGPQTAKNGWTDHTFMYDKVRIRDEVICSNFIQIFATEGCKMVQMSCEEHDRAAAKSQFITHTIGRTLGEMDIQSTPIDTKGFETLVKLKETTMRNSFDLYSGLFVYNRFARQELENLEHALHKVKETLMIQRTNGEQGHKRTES
Protocol: as §1, §3

[7] = biological target: T5, Glycine max GmPDH1 variant N222D, SEQ ID NO: 2 (Glycine max, UniProt I1MYY4, N222D); experiment: ADH and PDH assay: steady-state kinetics and Tyr inhibition, GmPDH1 N222D; type: biochemical, Glycine max (soybean); details: IC50^Tyr, 0.5 mM NADP^+
T5 sequence (I1MYY4 1-271 N222D): T1 sequence (I1MYY4 1-271) with N222D
Protocol: as §1, §3

[8] = biological target: Glycine max GmPDH1 variant N222A (Glycine max, UniProt I1MYY4, N222A); experiment: ADH and PDH assay: steady-state kinetics and Tyr inhibition, GmPDH1 N222A; type: biochemical, Glycine max (soybean); details: 0-8 mM L-Tyr
Glycine max GmPDH1 variant N222A, sequence (I1MYY4 1-271 N222A): as the sequence (I1MYY4 1-271 M219T) above, with T219M, N222A counted along it
Protocol: as §1, §3

[9] = biological target: Glycine max GmPDH1 variant M219T/N222D (Glycine max, UniProt I1MYY4, M219T/N222D); experiment: ADH and PDH assay: steady-state kinetics and Tyr inhibition, GmPDH1 M219T/N222D; type: biochemical, Glycine max (soybean); details: IC50^Tyr, 0.5 mM NADP^+
Glycine max GmPDH1 variant M219T/N222D, sequence (I1MYY4 1-271 M219T/N222D): as the sequence (I1MYY4 1-271 M219T) above, with N222D counted along it
Protocol: as §1, §3

[10] = biological target: T6, Glycine max GmncADH variant D218N (Glycine max, UniProt I1M7P5, D218N); experiment: ADH and PDH assay: steady-state kinetics and Tyr inhibition, GmncADH D218N; type: biochemical, Glycine max (soybean); details: versus wild-type; ADH activity, 0-8 mM Tyr
T6 construct: D218N by site-directed mutagenesis
T6 sequence (I1M7P5 1-266 D218N): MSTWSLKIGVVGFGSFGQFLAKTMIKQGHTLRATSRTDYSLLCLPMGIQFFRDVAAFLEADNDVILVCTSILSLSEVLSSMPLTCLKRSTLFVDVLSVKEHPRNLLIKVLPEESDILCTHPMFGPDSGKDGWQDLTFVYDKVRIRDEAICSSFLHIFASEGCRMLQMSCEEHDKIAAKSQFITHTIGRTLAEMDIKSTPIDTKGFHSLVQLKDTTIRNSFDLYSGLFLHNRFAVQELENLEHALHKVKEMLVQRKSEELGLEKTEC
Protocol: as §1, §3

[11] = biological target: T7, Solanum lycopersicum SolyncADH variant D224N (Solanum lycopersicum, UniProt K4C5K7, D224N); experiment: ADH and PDH assay: steady-state kinetics and Tyr inhibition, SolyncADH D224N; type: biochemical, Solanum lycopersicum (tomato); details: versus wild-type; ADH activity, 0-8 mM Tyr
T7 construct: D224N by site-directed mutagenesis
T7 sequence (K4C5K7 1-272 D224N): as the sequence (K4C5K7 1-272) above, with D224N counted along it
Protocol: as §1, §3

[12] = biological target: Arabidopsis thaliana AtADH2 variant D241N, SEQ ID NO: 12 (Arabidopsis thaliana, UniProt Q9LMR3, D275N); experiment: Tyr inhibition of AtADH2 D241N; type: biochemical; details: versus wild-type; ADH activity, 0-8 mM Tyr
Arabidopsis thaliana AtADH2 variant D241N, SEQ ID NO: 12, sequence (Q9LMR3 37-358 D275N): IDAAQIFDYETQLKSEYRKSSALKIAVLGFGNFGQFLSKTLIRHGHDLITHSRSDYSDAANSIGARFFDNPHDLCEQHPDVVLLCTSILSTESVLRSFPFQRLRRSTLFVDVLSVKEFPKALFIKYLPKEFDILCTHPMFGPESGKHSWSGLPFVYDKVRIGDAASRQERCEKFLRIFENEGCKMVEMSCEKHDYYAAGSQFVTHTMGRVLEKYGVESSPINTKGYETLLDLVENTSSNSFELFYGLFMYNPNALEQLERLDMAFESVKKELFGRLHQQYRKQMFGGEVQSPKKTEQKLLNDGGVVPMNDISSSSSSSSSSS
Protocol: as §1, §3

[13] = tested on: AaPDH, A. aeolicus prephenate dehydrogenase; details: cited from earlier work

For `N[C@@H](Cc1ccc(O)cc1)C(=O)O` [Tyr, L-Tyrosine], the IC50 [1] was 31.3 ± 9.3 mM, the “feedback inhibition by Tyr” value ([1]; up to 8 mM Tyr in assays) was “insensitive to feedback inhibition by Tyr” and the IC50 [2] was 32.1 ± 10 mM. The “feedback inhibition by Tyr” value ([2]; up to 8 mM Tyr in assays) was “insensitive to feedback inhibition by Tyr”, the Tyr inhibition [3] was “insensitive to Tyr inhibition” and the IC50 ([4]; substrate arogenate (1 mM)) was 2.2 ± 0.5 mM. For the same compound, the IC50 ([4]; substrate prephenate (0.8 mM)) was 0.6 ± 0.1 mM, the “IC50 (Tyr), in words” value ([4]; sensitivity to Tyr) was “in the mM range” and the IC50 [5] was 12.8 mM. For the same compound, the “inhibition by Tyr” value [6] was “not inhibited by Tyr”, the IC50 ([7]; substrate arogenate (1 mM)) was 4.7 ± 0.4 mM and the IC50 ([7]; substrate prephenate (0.8 mM)) was 5.3 ± 0.4 mM. For the same compound, the “inhibition by Tyr” value [8] was “not inhibited by Tyr”, the IC50 ([9]; substrate arogenate (1 mM)) was 5.9 ± 0.5 mM and the IC50 ([9]; substrate prephenate (0.8 mM)) was 11.1 ± 1.2 mM. For the same compound, the “sensitivity to Tyr inhibition” value [10] was “significantly less sensitive to Tyr inhibition”, the “sensitivity to Tyr inhibition” value [11] was “significantly less sensitive to Tyr inhibition” and the “sensitivity to Tyr inhibition” value [12] was “significantly less sensitive to Tyr inhibition”. For the same compound, the Tyr sensitivity [13] was “sensitive to Tyr”.
